pIC50: −log10 of the molar value.
Assays:
Format in all cases: biochemical
[1] = target: recombinant purified human JAK1 (Homo sapiens (Human), UniProt P23458); assay: in vitro JAK kinase assay on ADP Glo platform, JAK1; details: 50 μM ATP, 1 hr at room temperature
Protocol: (§1) NCEs were screened using in vitro JAK (1, 2 and 3) kinase assay on ADP Glo platform (Promega). Fixed amount of recombinant purified human JAK (25 ng of JAK1 and 10 ng of JAK2 and JAK3 per reaction, from Life Technologies Ltd) were incubated with increasing concentration of NCEs in 1× kinase reaction buffer (40 mM Tris-Cl, pH7.5, 20 mM MgCl2, 0.1 mg/ml BSA and 50 μM DTT). Enzymatic reaction was initiated by adding a substrate cocktail containing 50 μM of ATP (final concentration) and 5 μg for JAK1 and 2.5 μg for JAK2 and JAK3 of polyGln4Tyr1 (Signal Chem) in total 25 μl of reaction in 96 well plate. The reaction was incubated at room temperature for 1 hr.
(§2) After 1 hr of incubation equal volume (25 μl per reaction) of ADP Glo was added and incubated at room temperature for 40 min.
(§3) This was followed by addition of kinase detection reagent (50 μl per reaction) and incubation at room temperature for 30 min. Finally, plate was read for luminescence at an integration time of 500 millisecond per well.
(§4) Data were plotted taking Enzyme with no inhibitor set as the 100% kinase activity. IC50 values were calculated using Graph Pad Prism software.

[2] = target: recombinant purified human JAK2 (Homo sapiens (Human), UniProt O60674); assay: in vitro JAK kinase assay on ADP Glo platform, JAK2; details: 50 μM ATP, 1 hr at room temperature; read-out: JAK-2 IC50
recombinant purified human JAK2, sequence (O60674 whole entry): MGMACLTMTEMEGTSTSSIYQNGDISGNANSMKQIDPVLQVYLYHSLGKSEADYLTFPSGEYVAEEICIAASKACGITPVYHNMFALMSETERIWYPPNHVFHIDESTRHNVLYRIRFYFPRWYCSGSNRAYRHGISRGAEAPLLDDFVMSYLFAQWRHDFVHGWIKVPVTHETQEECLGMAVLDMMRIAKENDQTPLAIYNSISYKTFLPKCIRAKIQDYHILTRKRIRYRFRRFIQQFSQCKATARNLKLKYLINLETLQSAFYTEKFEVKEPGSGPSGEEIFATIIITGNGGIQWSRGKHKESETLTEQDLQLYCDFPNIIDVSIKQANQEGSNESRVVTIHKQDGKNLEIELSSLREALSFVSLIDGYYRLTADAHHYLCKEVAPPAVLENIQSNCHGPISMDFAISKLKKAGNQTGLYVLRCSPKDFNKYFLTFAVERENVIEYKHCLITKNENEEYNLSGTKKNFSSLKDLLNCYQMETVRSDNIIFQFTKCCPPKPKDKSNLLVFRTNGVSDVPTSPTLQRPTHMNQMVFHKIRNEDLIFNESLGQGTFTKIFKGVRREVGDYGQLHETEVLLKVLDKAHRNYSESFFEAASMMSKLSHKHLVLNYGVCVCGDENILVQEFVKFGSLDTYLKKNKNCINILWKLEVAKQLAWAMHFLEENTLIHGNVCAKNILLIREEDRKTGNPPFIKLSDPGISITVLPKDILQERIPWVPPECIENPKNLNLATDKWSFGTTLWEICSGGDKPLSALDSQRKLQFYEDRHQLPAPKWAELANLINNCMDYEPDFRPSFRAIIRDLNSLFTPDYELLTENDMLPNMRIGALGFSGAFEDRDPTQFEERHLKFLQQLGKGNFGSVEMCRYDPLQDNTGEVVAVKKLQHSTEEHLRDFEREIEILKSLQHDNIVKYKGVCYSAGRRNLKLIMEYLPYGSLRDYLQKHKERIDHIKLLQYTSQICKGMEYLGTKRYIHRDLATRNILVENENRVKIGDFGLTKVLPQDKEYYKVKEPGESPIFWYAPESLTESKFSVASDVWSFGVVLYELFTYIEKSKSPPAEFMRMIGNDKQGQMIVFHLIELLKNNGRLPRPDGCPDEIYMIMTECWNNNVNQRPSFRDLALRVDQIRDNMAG
Protocol: as §1, §2, §3, §4

[3] = target: recombinant purified human JAK3 (Homo sapiens (Human), UniProt P52333); assay: in vitro JAK kinase assay on ADP Glo platform, JAK3; details: 50 μM ATP, 1 hr at room temperature; read-out: JAK-3 IC50
recombinant purified human JAK3, sequence (P52333 whole entry): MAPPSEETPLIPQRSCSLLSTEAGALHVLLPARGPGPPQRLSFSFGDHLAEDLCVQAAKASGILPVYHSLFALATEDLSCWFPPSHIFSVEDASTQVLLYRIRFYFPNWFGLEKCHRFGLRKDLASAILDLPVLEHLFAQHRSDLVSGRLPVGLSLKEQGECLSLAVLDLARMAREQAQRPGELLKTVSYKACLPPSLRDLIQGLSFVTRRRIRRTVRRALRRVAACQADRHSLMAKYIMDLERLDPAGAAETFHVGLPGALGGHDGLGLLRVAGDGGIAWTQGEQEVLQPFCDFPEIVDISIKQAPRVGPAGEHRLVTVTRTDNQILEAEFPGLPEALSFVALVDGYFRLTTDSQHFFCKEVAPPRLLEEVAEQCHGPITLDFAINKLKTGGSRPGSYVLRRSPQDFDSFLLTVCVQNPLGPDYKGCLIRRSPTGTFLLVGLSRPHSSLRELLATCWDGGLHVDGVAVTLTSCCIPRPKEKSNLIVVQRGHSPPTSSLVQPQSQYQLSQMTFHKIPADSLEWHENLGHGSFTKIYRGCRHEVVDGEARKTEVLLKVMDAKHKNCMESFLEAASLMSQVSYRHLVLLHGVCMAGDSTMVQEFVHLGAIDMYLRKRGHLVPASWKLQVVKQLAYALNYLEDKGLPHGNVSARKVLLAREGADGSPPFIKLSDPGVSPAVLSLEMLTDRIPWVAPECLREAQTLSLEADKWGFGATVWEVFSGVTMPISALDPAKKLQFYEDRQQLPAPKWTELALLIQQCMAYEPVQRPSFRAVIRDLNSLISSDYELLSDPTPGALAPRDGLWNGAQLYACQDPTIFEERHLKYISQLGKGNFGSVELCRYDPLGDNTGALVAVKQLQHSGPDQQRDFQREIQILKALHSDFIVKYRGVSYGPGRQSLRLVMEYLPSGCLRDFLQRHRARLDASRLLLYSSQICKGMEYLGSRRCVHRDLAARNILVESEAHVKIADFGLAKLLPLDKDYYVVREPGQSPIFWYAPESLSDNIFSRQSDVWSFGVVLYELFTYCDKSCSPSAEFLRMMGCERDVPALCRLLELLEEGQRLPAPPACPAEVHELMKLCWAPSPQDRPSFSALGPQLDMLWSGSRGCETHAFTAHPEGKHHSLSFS
Protocol: as §1, §2, §3, §4

recombinant purified human JAK1, sequence (P23458 whole entry): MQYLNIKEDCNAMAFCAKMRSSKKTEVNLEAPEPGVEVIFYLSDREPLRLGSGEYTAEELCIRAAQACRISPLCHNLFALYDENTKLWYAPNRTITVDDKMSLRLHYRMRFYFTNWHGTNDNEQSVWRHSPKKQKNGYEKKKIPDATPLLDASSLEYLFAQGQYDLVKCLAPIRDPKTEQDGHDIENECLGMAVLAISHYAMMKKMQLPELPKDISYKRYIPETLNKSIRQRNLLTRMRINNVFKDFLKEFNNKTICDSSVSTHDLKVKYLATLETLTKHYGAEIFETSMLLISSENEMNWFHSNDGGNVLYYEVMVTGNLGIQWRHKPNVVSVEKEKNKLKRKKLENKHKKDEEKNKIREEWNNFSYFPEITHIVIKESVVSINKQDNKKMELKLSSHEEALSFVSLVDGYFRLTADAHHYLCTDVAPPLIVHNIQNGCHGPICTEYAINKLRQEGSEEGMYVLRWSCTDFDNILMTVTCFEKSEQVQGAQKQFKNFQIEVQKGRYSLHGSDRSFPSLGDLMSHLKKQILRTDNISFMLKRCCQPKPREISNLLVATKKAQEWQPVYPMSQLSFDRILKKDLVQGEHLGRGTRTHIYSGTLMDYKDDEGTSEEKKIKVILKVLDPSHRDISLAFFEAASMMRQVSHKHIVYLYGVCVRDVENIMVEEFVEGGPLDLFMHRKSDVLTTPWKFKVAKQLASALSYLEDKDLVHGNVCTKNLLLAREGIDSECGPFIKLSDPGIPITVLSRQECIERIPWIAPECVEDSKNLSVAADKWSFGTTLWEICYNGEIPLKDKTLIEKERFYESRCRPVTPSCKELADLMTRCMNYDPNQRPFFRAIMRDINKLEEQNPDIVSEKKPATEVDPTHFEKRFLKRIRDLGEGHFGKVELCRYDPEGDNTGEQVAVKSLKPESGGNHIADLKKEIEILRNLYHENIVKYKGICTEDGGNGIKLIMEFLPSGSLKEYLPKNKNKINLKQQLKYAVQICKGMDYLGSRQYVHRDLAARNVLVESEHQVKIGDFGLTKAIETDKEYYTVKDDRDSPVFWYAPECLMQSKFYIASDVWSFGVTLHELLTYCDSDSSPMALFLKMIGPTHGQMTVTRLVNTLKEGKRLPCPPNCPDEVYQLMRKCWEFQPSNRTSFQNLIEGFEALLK

SMILES | pIC50 [1] | pIC50 [2] | pIC50 [3]
N#CCNC(=O)c1ccc(-c2ccnc(Nc3ccc(N4CCC(N5CCCS5(=O)=O)CC4)cc3)n2)cc1 [Example 2, N-(cyanomethyl)-4-(2-((4-(4-(1,1-dioxidoisothiazolidin-2-yl)piperidin-1-yl)phenyl)amino)pyrimidin-4-yl)benzamide] | 8.29 | 8.40 | 7.29
N#CCNC(=O)c1ccc(-c2ccnc(Nc3ccc(N4CCC(N5CCCC5)C4)cc3)n2)cc1 (stereo not drawn) [Example 6, 4-(2-((4-([1,3′-Bipyrrolidin]-1′-yl)phenyl)amino)pyrimidin-4-yl)-N-(cyanomethyl)benzamide] | 7.80 | 7.72 | 6.81
N#CCNC(=O)c1ccc(-c2ccnc(Nc3ccc(N4CCN(C5CCS(=O)(=O)CC5)CC4)cc3)n2)cc1 [Example 7, N-(cyanomethyl)-4-(2-((4-(4-(1,1-dioxidotetrahydro-2H-thiopyran-4-yl)piperazin-1-yl)phenyl)amino)pyrimidin-4-yl)benzamide] | 7.85 | 7.92 | 7.21
N#CCNC(=O)c1ccc(-c2ccnc(Nc3ccc(N4CCN(C5CCS(=O)(=O)C5)CC4)cc3)n2)cc1 (stereo not drawn) [Example 9, N-(cyanomethyl)-4-(2-((4-(4-(1,1-dioxidotetrahydrothiophen-3-yl)piperazin-1-yl)phenyl)amino)pyrimidin-4-yl)benzamide] | 7.85 | 8.10 | 7.40
N#CCNC(=O)c1ccc(-c2ccnc(Nc3ccc(N4CCC(N5CCOC5=O)CC4)cc3)n2)cc1 [Example 12, N-(cyanomethyl)-4-(2-((4-(4-(2-oxooxazolidin-3-yl)piperidin-1-yl)phenyl)amino)pyrimidin-4-yl)benzamide] | 7.60 | – | 7.11
N#CCNC(=O)c1ccc(-c2ccnc(Nc3ccc(N4CCN(C5CCOCC5)CC4)cc3)n2)cc1 [Example 15, N-(cyanomethyl)-4-(2-((4-(4-(tetrahydro-2H-pyran-4-yl)piperazin-1-yl)phenyl)amino)pyrimidin-4-yl)benzamide] | 7.80 | 7.96 | 7.06
N#CCNC(=O)c1ccc(-c2ccnc(Nc3ccc(N4CCC(N5CCNC5=O)CC4)cc3)n2)cc1 [Example 18, N-(cyanomethyl)-4-(2-((4-(4-(2-oxoimidazolidin-1-yl)piperidin-1-yl)phenyl)amino)pyrimidin-4-yl)benzamide] | 8.05 | 7.96 | 7.30
N#CCNC(=O)c1ccc(-c2ccnc(Nc3ccc(N4CCC(N5CC6OCCOC6C5)CC4)cc3)n2)cc1 (stereo not drawn) [Example 27, N-(cyanomethyl)-4-(2-((4-(4-(tetrahydro-2H-[1,4]dioxino[2,3-c]pyrrol-6(3H)-yl)piperidin-1-yl)phenyl)amino)pyrimidin-4-yl)benzamide] | 8.00 | 8.30 | 7.31
N#CCNC(=O)c1ccc(-c2ccnc(Nc3ccc(N4CCC(N5CCC6(CCC(=O)O6)CC5)CC4)cc3)n2)cc1 [Example 28, N-(cyanomethyl)-4-(2-((4-(4-(2-oxo-1-oxa-8-azaspiro[4.5]decan-8-yl)piperidin-1-yl)phenyl)amino)pyrimidin-4-yl)benzamide] | 7.96 | 8.22 | 7.26
N#CCNC(=O)c1ccc(-c2ccnc(Nc3ccc(N4CCN(C5=NCCN5)CC4)cc3)n2)cc1 [Example 33, N-(cyanomethyl)-4-(2-((4-(4-(4,5-dihydro-1H-imidazol-2-yl)piperazin-1-yl)phenyl)amino)pyrimidin-4-yl)benzamide] | 7.70 | 7.96 | 7.27
N#CCNC(=O)c1ccc(-c2ccnc(Nc3ccc(N4CCC(N5CC6OCCOC6C5)C4)cc3)n2)cc1 (stereo not drawn) [Example 35, N-(cyanomethyl)-4-(2-((4-(3-(tetrahydro-2H-[1,4]dioxino[2,3-c]pyrrol-6(3H)-yl)pyrrolidin-1-yl)phenyl)amino)pyrimidin-4-yl)benzamide] | 7.82 | 7.68 | 6.86
CC(=O)N1C2CC1CN(C1CCN(c3ccc(Nc4nccc(-c5ccc(C(=O)NCC#N)cc5)n4)cc3)CC1)C2 [Example 39, 4-(2-((4-(4-(6-acetyl-3,6-diazabicyclo[3.1.1]heptan-3-yl)piperidin-1-yl)phenyl)amino)pyrimidin-4-yl)-N-(cyanomethyl)benzamide] | 8.06 | – | 7.29

The next lines start with the values.

pIC50 [1] | pIC50 [2] | pIC50 [3] | SMILES
8.00 | 8.15 | 7.40 | N#CCNC(=O)c1ccc(-c2ccnc(Nc3ccc(N4CCC(c5nnco5)CC4)cc3)n2)cc1 [Example 19, 4-(2-((4-(4-(1,3,4-oxadiazol-2-yl)piperidin-1-yl)phenyl)amino)pyrimidin-4-yl)-N-(cyanomethyl)benzamide]
7.70 | 7.77 | 7.13 | COc1nnc(C2CCN(c3ccc(Nc4nccc(-c5ccc(C(=O)NCC#N)cc5)n4)cc3)CC2)o1 [Example 31, N-(cyanomethyl)-4-(2-((4-(4-(5-methoxy-1,3,4-oxadiazol-2-yl)piperidin-1-yl)phenyl)amino)pyrimidin-4-yl)benzamide]
8.04 | – | 7.33 | Cc1nnc(N2CCN(c3ccc(Nc4nccc(-c5ccc(C(=O)NCC#N)cc5)n4)cc3)CC2)o1 [Example 36, N-(cyanomethyl)-4-(2-((4-(4-(5-methyl-1,3,4-oxadiazol-2-yl)piperazin-1-yl)phenyl)amino)pyrimidin-4-yl)benzamide]
8.89 | 8.55 | 7.49 | Cc1cnc(Nc2ccc(N3CCC(N4CCOCC4)CC3)cc2)nc1-c1ccc(C(=O)NCC#N)cc1 [Example 40, N-(cyanomethyl)-4-(5-methyl-2-((4-(4-morpholinopiperidin-1-yl)phenyl)amino)pyrimidin-4-yl)benzamide]
9.22 | 8.60 | 7.97 | Cc1cnc(Nc2ccc(N3CCC(N4CCCC4=O)CC3)cc2)nc1-c1ccc(C(=O)NCC#N)cc1 [Example 41, N-(cyanomethyl)-4-(5-methyl-2-((4-(4-(2-oxopyrrolidin-1-yl)piperidin-1-yl)phenyl)amino)pyrimidin-4-yl)benzamide]
8.60 | 8.37 | 7.23 | Cc1cnc(Nc2ccc(N3CCC(N4CCC5(CCCO5)CC4)CC3)cc2)nc1-c1ccc(C(=O)NCC#N)cc1 [Example 42, 4-(2-((4-(4-(1-oxa-8-azaspiro[4.5]decan-8-yl)piperidin-1-yl)phenyl)amino)-5-methylpyrimidin-4-yl)-N-(cyanomethyl)benzamide]
8.92 | 8.59 | 7.28 | Cc1nnc(C2CCN(c3ccc(Nc4ncc(C)c(-c5ccc(C(=O)NCC#N)cc5)n4)cc3)CC2)o1 [Example 43, N-(cyanomethyl)-4-(5-methyl-2-((4-(4-(5-methyl-1,3,4-oxadiazol-2-yl)piperidin-1-yl)phenyl)amino)pyrimidin-4-yl)benzamide]

Reference: patent publication US9556148B2, “N-cyanomethylamides as inhibitors of janus kinase” (CADILA HEALTHCARE LIMITED, priority 2013, dated 2017)
